The structures appear in SMILES notation.

The first test relates to phosphorylated myosin regulatory light chain in neutrophils. The experiment in a line: Action on amount of phosphorylated myosin regulatory light chain in the cells (Test Example 1). It is filed as cell-based. As to conditions: Neutrophil, 5 min; human neutrophils, reaction at 25° C. for 5 minutes; read-out: concentration at which the phosphorylation of myosin regulatory light chain is inhibited (IC50). The protocol: A volume of 50 to 100 ml of peripheral blood collected from healthy volunteers was centrifuged by using Mono-Poly separator solution (Dainippon Pharmaceutical) to prepare a neutrophil containing fraction. The neutrophils were washed with PBS(−) and resuspended in Hanks' Balanced Salt Solution (HBSS+, Gibco) to prepare a cell suspension (8×10^6/ml). The cell suspension was diluted to 5×10^6/ml, introduced into Eppendorf tubes in a volume of 0.4 ml each, then 0.1 ml each of solutions of a test compound at various concentrations were added to the suspension and allowed to react at 25° C. for 5 minutes. After the reaction, 0.1 ml of trichloroacetic acid solution was added to each reaction, the reaction mixture was gently shaken and centrifuged at 12,000 rpm (4° C., 5 minutes), and the supernatant was removed. Subsequently, 3 μl of 1 M Tris solution was added to the residue, the mixture was further mixed with 50 μl of extraction buffer (8 M urea, 0.02% 2-mercaptoethanol, 0.002% bromophenol blue) and left stand at room temperature for 1 hour. Then, the reaction mixture was loaded on a spin column (0.45 μm, Millipore) to remove the insoluble solids and a sample buffer for SDS polyacrylamide gel electrophoresis (25 mM, Tris-HCl pH 6.8, 2.5% 2-mercaptoethanol, 2% sodium dodecylsulfate, 5% sucrose, 0.002% bromophenol blue as final concentrations) was added, and 10 μl of each sample was subjected to electrophoresis.
The gel after the electrophoresis was blotted on a nitrocellulose membrane (BioRad), blocked with 5% skim milk, and reacted successively with antibodies pLC1 (Sakurada K. et al, Am. J. Physiol., 274, C1563–C1572 (1998)), which specifically recognize the phosphorylated myosin regulatory light chain, and donkey anti-mouse IgG (Chemicon) conjugated with horseradish peroxidase. The band of the phosphorylated myosin regulatory light chain was detected on a film by using ECL Plus Kit (Amersham Pharmacia Biotech). This band was subjected to quantification using a densitometer. By using this value, the inhibitory ratio (%) for phosphorylation of the myosin regulatory light chain was calculated by using the following equation. Phosphorylation inhibition ratio (%)=1−(Band intensity of phosphorylated myosin regulatory light chain with addition of the test compound/Band intensity of phosphorylated myosin regulatory light chain without addition of the test compound)×100
Further, the phosphorylation inhibition ratio was calculated with changing the concentrations of the test compound, and a compound concentration providing an inhibition ratio of 50% was obtained as IC50.
On to `Clc1ncc2c3c(cccc13)N(C1CCNCC1)CC2` [Example 61, 6-Chloro-1-(piperidin-4-yl)-2,3-dihydro-1H-1,5-diazaphenalene], for which the IC50 was at most 40 µM.

A further test concerns ovalbumin-induced constriction of respiratory tract. The experiment in a line: Respiratory tract constriction suppressing action, intravenous administration (Test Example 3). As to conditions: ovalbumin-immunized guinea pigs, administered from cannula in hind leg vein, measured for 15 minutes. It is filed as in vivo, Hartley guinea pigs. The protocol: Four-week old Hartley guinea pigs (male) were immunized by intraperitoneal administration of ovalbumin (Sigma, Grade V) in amounts of 1 mg for each animal on the day on which the experiment was started, 3 mg for each animal after 2 days, and 10 mg for each animal after 4 days. Twelve to fourteen days after the final immunization, the ovalbumin-immunized guinea pigs were anesthetized by intraperitoneal administration of about 40 mg/kg of pentobarbital (Somnopentyl), and the tracheas were taken out. Subsequently, a cannula (SP-110, Natsume) was inserted into each trachea, and one end of the cannula was connected to an artificial respirator (Model-b83, Harvard). The aeration conditions were set at 6 ml per kilogram and 60 times per 1 minute. Further, a cannula for medicament administration (JMS wing needle 23G 3/4) was inserted into a hind leg vein. Myoblock (Organon Technica) was administered in an amount of 0.5 mg/kg from the cannula inserted into the hind leg vein to stop the spontaneous breathing, and after 2 or 3 minutes, 0.3 mg/kg of ovalbumin was administered to induce constriction of respiratory tract. The increase of airway resistance value 2 minutes after the induction (measurement apparatuses: pressure transducer TR-603T, respiratory amplifier AR-601G, and recorder RTA-3100, Nihon Kohden Corp.) was confirmed to be above 80 cm H2O or higher, and then, a solution of a test medicament was administered from the cannula inserted into the hind leg vein, and the airway resistance value was continuously measured for 15 minutes after the administration to determine the effect.
Regarding `Cl.c1cc2c3c(cncc3c1)CCN2C1CCNCC1` [Example 11], the “improvement of constriction of respiratory tract (airway resistance value)” value (shortened to “improvement”) was “significantly improved the constriction of respiratory tract”.

Consider `Cl.NCCN1CCC(N2CCc3cncc4cccc2c34)CC1` [Example 14], for which the “improvement” value is “significantly improved the constriction of respiratory tract”.

As to `Cl.NCCCN1CCC(N2CCc3cncc4cccc2c34)CC1` [Example 15], the “improvement” value is “significantly improved the constriction of respiratory tract”.

A further test shares this test system. The experiment in a line: Respiratory tract constriction suppressing action, administration by inhalation (Test Example 3). The test is classed as in vivo, Hartley guinea pigs. As to conditions: ovalbumin-immunized guinea pigs, 2 ml solution by inhalation over 5 minutes. The protocol:
Four-week old Hartley guinea pigs (male) were immunized by intraperitoneal administration of ovalbumin (Sigma, Grade V) in amounts of 1 mg for each animal on the day on which the experiment was started, 3 mg for each animal after 2 days, and 10 mg for each animal after 4 days. Further, the respiratory tract constriction suppression action of the test compounds was also evaluated by inhalation. Twelve to fourteen days after the final sensitization, 10 mg/kg of pyrilamine (Sigma), 5 mg/kg of indomethacin (Wako), or 0.1 mg/kg of propranolol (Sigma) was intraperitoneally administered. Then, 30 minutes after the administration, a 0.1% ovalbumin aqueous solution was inhaled by using a pressurization type nebulizer (PARI-IS2) to induce constriction of the respiratory tract. Ten minutes after the induction, 2 ml of a solution of a test compound prepared at various concentrations was filled in the aforementioned nebulizer, and administered by inhalation over 5 minutes. After the administration of pyrilamine and other drugs, airway resistance value was continuously measured to determine effectiveness.
Turning to `Cl.c1cc2c3c(cncc3c1)CCN2C1CCNCC1` [Example 11], the “improvement” value was “significantly improved the constriction of respiratory tract”.

On to `Cl.NCCN1CCC(N2CCc3cncc4cccc2c34)CC1` [Example 14], for which the “improvement” value is on record as “significantly improved the constriction of respiratory tract”.

Take `Cl.NCCCN1CCC(N2CCc3cncc4cccc2c34)CC1` [Example 15]: the “improvement” value is “significantly improved the constriction of respiratory tract”.

A further test deals with intraocular pressure. Kind of test: Intraocular pressure reducing action (Test Example 4). The test is classed as in vivo, Japanese white rabbit. Particulars: rabbit, 50 μl of aqueous solution dropped to the left eye. The protocol: A Japanese white rabbit having a body weight of about 2 kg was placed in a positioner and naturalized for one week before the experiment. An ophthalmologic local anesthesant (Benoxil) was administered to the left eye, and then intraocular pressure was measured by using a tonometer (Classic 30, Solan). The initial value of the intraocular pressure was measured, then 50 μl of an aqueous solution of a test compound was dropped to the left eye at various concentrations, and the intraocular pressure was measured with passage of time.
Take `Cl.c1cc2c3c(cncc3c1)CCN2C1CCNC1` (stereo not drawn) [Example 1]: the “intraocular pressure reducing action” value was “significant intraocular pressure reducing action”.

For `Cl.c1cc2c3c(cncc3c1)CCN2C1CCNCC1` [Example 11], the “intraocular pressure reducing action” value is on record as “significant intraocular pressure reducing action”.

Regarding `Cl.OCCN1CCC(N2CCc3cncc4cccc2c34)CC1` [Example 12], the “intraocular pressure reducing action” value is given as “significant intraocular pressure reducing action”.

As for `Cl.OCCCN1CCC(N2CCc3cncc4cccc2c34)CC1` [Example 13], the “intraocular pressure reducing action” value is listed as “significant intraocular pressure reducing action”.

Regarding `Cl.NCCN1CCC(N2CCc3cncc4cccc2c34)CC1` [Example 14], the “intraocular pressure reducing action” value is listed as “significant intraocular pressure reducing action”.

For `Cl.NCCCN1CCC(N2CCc3cncc4cccc2c34)CC1` [Example 15], the “intraocular pressure reducing action” value is given as “significant intraocular pressure reducing action”.

Turning to `Cl.N#CCN1CCC(N2CCc3cncc4cccc2c34)CC1` [Example 18], the “intraocular pressure reducing action” value was “significant intraocular pressure reducing action”.

Regarding `Cl.N[C@H]1CC[C@H](N2CCc3cncc4cccc2c34)CC1` [Example 21], the “intraocular pressure reducing action” value was “significant intraocular pressure reducing action”.

Consider `Cl.OCCN[C@H]1CC[C@H](N2CCc3cncc4cccc2c34)CC1` [Example 22], for which the “intraocular pressure reducing action” value is “significant intraocular pressure reducing action”.

With `Cl.N[C@H]1CC[C@@H](N2CCc3cncc4cccc2c34)CC1` [Example 31], the “intraocular pressure reducing action” value is “significant intraocular pressure reducing action”.

Regarding `CC(=O)NCCCN1CCC(N2CCc3cncc4cccc2c34)CC1` [Example 47], the “intraocular pressure reducing action” value is listed as “significant intraocular pressure reducing action”.

`CN1CCC(N2CCc3cncc4cccc2c34)CC1` [Example 52]: the “intraocular pressure reducing action” value is given as “significant intraocular pressure reducing action”.

Take `CNCCN1CCC(N2CCc3cncc4cccc2c34)CC1` [Example 57]: the “intraocular pressure reducing action” value is reported as “significant intraocular pressure reducing action”.

As to `Cl.Oc1ncc2c3c(cccc13)N(C1CCNCC1)CC2` [Example 62], the “intraocular pressure reducing action” value is listed as “significant intraocular pressure reducing action”.

`Cl.OCCN1CCC(N2CCc3cnc(O)c4cccc2c34)CC1` [Example 63]: the “intraocular pressure reducing action” value was “significant intraocular pressure reducing action”.

Turning to `Cl.OCCCN1CCC(N2CCc3cnc(O)c4cccc2c34)CC1` [Example 64], the “intraocular pressure reducing action” value is given as “significant intraocular pressure reducing action”.

Turning to `CC(=O)NCCN1CCC(N2CCc3cnc(O)c4cccc2c34)CC1` [Example 67], the “intraocular pressure reducing action” value was “significant intraocular pressure reducing action”.

Take `CCC(=O)NCCN1CCC(N2CCc3cnc(O)c4cccc2c34)CC1` [Example 68]: the “intraocular pressure reducing action” value is recorded as “significant intraocular pressure reducing action”.

Turning to `CC(=O)NCCCN1CCC(N2CCc3cnc(O)c4cccc2c34)CC1` [Example 72], the “intraocular pressure reducing action” value was “significant intraocular pressure reducing action”.

`CCC(=O)NCCCN1CCC(N2CCc3cnc(O)c4cccc2c34)CC1` [Example 73]: the “intraocular pressure reducing action” value is “significant intraocular pressure reducing action”.

As to `CC(C)(C)C(=O)NCCCN1CCC(N2CCc3cnc(O)c4cccc2c34)CC1` [Example 76], the “intraocular pressure reducing action” value was “significant intraocular pressure reducing action”.

As for `N[C@H]1CC[C@H](N2CCc3cnc(O)c4cccc2c34)CC1` [Example 77], the “intraocular pressure reducing action” value is recorded as “significant intraocular pressure reducing action”.

On to `Cl.OCCN[C@H]1CC[C@H](N2CCc3cnc(O)c4cccc2c34)CC1` [Example 78], for which the “intraocular pressure reducing action” value is listed as “significant intraocular pressure reducing action”.

`Cl.OCCCN[C@H]1CC[C@H](N2CCc3cnc(O)c4cccc2c34)CC1` [Example 79]: the “intraocular pressure reducing action” value was “significant intraocular pressure reducing action”.

Take `CC(=O)NCCN[C@H]1CC[C@H](N2CCc3cnc(O)c4cccc2c34)CC1.Cl` [Example 82]: the “intraocular pressure reducing action” value was “significant intraocular pressure reducing action”.

For the molecule `CCC(=O)NCCN[C@H]1CC[C@H](N2CCc3cnc(O)c4cccc2c34)CC1.Cl` [Example 83], the “intraocular pressure reducing action” value is “significant intraocular pressure reducing action”.

Turning to `CCCC(=O)NCCN[C@H]1CC[C@H](N2CCc3cnc(O)c4cccc2c34)CC1.Cl` [Example 84], the “intraocular pressure reducing action” value is given as “significant intraocular pressure reducing action”.

As for `CC(=O)NCCCN[C@H]1CC[C@H](N2CCc3cnc(O)c4cccc2c34)CC1.Cl` [Example 87], the “intraocular pressure reducing action” value is recorded as “significant intraocular pressure reducing action”.

For `CCC(=O)NCCCN[C@H]1CC[C@H](N2CCc3cnc(O)c4cccc2c34)CC1.Cl` [Example 88], the “intraocular pressure reducing action” value is “significant intraocular pressure reducing action”.

(Values after patent publication US7160894B2, “Tricyclic compound” (Asahi Kasei Pharma Corporation, priority 2003, dated 2007).)
